How the values were obtained:
JAK3/JAK1 = JAK3/JAK1 (Homo sapiens, UniProt P23458+P52333); test: Inhibition of JAK1/JAK3 in human primary T-cells assessed as reduction of IL-2 stimulated STAT5 phosphorylation preincubated for 1 hr followed by IL-2 stimulation for 15 mins by FACS method; format: cell-based, T-cell
[1] = Plasma protein binding in rat; format: ADME, cell-free; details: read-out: PPB (converted)
[2] = Plasma protein binding in human; format: ADME, cell-free; details: read-out: PPB (converted)
[3] = Inhibition of IL-2 stimulated IFN-gamma production in BALB/c mouse at 40 mg/kg, po pretreated for 30 mins followed by IL-2 stimulation and measured after 4 hrs by ELISA; format: functional; details: time 4.5 hrs
[4] = molecular target: Tyrosine-protein kinase JAK2 (Homo sapiens, UniProt O60674); test: Inhibition of JAK2 signaling pathway in human CHEP cells assessed as inhibition of EPO-induced cell survival preincubated for 1 hr followed by EPO addition and measured after 48 hrs by CellTiter-Glo luminescent assay; format: toxicity, cell-based
Homo sapiens = species on record: Homo sapiens; test: Selectivity ratio of IC50 for inhibition of JAK2 signaling pathway in EPO-stimulated human CHEP cells to IC50 for inhibition of JAK1/JAK3 in human primary T-cells assessed as reduction of IL-2 stimulated STAT5 phosphorylation
[5] = Inhibition of IL-2 stimulated IFN-gamma production in BALB/c mouse at 5 mg/kg, po pretreated for 30 mins followed by IL-2 stimulation and measured after 4 hrs by ELISA; format: functional; details: time 4.5 hrs
Cytochrome P450 3A4 [6] = molecular target: T1, Cytochrome P450 3A4 (Homo sapiens, UniProt P08684); test: Inhibition of CYP3A4 (unknown origin) in absence of NADPH; format: ADME
Cytochrome P450 3A4 [7] = molecular target: T1, Cytochrome P450 3A4; test: Inhibition of CYP3A4 (unknown origin) in presence of NADPH; format: ADME
[8] = Oral bioavailability in Sprague-Dawley rat 5 mg/kg; format: ADME, organism-based; details: in vivo
[9] = molecular target: T2, Tyrosine-protein kinase SYK (Homo sapiens, UniProt P43405); test: Inhibition of SYK (unknown origin) assessed as reduction of IgM-stimulated ERK phosphorylation by Cell-based assay
Cytochrome P450 1A2 = molecular target: T3, Cytochrome P450 1A2 (Homo sapiens, UniProt P05177); test: Inhibition of CYP1A2 (unknown origin); format: ADME
T3 sequence (P05177 whole entry): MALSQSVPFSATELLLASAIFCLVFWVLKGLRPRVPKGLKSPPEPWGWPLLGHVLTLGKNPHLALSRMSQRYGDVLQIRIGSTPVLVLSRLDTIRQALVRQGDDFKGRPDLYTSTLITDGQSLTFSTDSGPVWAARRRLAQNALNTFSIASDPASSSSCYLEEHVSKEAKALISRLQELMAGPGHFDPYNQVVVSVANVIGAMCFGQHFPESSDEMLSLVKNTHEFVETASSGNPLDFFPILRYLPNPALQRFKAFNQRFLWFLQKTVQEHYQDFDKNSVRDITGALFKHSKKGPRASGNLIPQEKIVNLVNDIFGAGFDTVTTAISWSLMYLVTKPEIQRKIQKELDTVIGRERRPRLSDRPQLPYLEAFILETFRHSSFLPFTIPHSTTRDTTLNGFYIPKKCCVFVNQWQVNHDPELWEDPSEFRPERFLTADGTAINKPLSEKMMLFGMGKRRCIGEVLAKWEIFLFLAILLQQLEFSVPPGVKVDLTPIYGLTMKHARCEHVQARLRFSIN

[10] = molecular target: T2, Tyrosine-protein kinase SYK; test: Inhibition of human full length recombinant N-terminal GST-tagged SYK expressed in baculovirus expression system at 250 nM by Z'-lyte assay
[11] = AUC in Sprague-Dawley rat 5 mg/kg, po; format: ADME, organism-based; set-up: dose 5 mg/kg, route po; details: in vivo
Rattus norvegicus [12] = test: Antiarthritic activity against collagen-induced arthritis Lewis rat model assessed as reduction in disease severity by measuring inhibition of hind limb clinical score at 50 mg/kg, po bid measured upto 20 days; format: functional; details: 480 h, time <= 20 day
Rattus norvegicus [13] = test: Antiarthritic activity against collagen-induced arthritis Lewis rat model assessed as reduction in disease severity by measuring inhibition of hind limb clinical score at 100 mg/kg, po qd measured upto 20 days; format: functional; details: 480 h, time <= 20 day
Rattus norvegicus [14] = test: Antiarthritic activity against collagen-induced arthritis Lewis rat model assessed as reduction in disease severity by measuring inhibition of hind limb clinical score at 25 mg/kg, po bid measured upto 20 days; format: functional; details: 480 h, time <= 20 day

T1 sequence (P08684 whole entry): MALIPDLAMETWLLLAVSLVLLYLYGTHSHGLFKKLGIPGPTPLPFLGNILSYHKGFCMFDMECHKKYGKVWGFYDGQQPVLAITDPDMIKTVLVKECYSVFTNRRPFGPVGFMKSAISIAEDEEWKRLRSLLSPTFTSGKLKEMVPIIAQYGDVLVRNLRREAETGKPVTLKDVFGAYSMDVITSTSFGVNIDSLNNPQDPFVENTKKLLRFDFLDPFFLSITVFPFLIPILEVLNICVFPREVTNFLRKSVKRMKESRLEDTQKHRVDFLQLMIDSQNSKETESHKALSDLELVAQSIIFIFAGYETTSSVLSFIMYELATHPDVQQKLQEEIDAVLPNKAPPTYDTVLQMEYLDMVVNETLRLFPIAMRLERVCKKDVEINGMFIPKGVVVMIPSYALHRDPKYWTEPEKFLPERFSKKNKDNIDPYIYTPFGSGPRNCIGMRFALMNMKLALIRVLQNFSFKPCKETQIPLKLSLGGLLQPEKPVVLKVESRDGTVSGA
Sequence of Tyrosine-protein kinase JAK2 (O60674 whole entry): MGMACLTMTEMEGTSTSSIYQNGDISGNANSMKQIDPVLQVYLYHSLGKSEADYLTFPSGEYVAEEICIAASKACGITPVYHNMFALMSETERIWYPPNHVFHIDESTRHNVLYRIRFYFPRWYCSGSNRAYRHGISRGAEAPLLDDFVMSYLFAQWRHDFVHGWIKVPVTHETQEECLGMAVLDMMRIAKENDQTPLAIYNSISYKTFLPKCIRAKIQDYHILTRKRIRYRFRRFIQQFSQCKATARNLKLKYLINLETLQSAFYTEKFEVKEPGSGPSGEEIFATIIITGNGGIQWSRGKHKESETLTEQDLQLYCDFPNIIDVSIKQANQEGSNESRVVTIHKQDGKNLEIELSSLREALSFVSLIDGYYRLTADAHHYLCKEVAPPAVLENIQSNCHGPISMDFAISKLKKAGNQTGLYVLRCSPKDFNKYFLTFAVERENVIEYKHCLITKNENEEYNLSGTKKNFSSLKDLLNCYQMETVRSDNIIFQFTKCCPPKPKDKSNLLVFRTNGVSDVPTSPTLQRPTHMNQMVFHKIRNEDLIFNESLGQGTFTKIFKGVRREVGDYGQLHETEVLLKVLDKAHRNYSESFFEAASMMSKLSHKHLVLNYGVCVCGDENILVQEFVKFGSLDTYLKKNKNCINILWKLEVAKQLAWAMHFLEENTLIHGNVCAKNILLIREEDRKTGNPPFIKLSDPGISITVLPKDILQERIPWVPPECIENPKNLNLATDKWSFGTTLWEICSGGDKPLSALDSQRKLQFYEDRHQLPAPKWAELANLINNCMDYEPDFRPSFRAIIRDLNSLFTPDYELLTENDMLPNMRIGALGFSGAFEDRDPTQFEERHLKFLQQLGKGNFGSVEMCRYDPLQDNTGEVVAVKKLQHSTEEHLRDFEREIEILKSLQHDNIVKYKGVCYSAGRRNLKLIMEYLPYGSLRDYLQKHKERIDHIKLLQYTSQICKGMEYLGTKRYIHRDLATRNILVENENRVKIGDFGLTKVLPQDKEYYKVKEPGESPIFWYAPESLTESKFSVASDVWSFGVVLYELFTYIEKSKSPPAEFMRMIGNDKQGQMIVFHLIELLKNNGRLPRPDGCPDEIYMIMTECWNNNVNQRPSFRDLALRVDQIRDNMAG
Sequence of JAK3/JAK1 (P52333 whole entry): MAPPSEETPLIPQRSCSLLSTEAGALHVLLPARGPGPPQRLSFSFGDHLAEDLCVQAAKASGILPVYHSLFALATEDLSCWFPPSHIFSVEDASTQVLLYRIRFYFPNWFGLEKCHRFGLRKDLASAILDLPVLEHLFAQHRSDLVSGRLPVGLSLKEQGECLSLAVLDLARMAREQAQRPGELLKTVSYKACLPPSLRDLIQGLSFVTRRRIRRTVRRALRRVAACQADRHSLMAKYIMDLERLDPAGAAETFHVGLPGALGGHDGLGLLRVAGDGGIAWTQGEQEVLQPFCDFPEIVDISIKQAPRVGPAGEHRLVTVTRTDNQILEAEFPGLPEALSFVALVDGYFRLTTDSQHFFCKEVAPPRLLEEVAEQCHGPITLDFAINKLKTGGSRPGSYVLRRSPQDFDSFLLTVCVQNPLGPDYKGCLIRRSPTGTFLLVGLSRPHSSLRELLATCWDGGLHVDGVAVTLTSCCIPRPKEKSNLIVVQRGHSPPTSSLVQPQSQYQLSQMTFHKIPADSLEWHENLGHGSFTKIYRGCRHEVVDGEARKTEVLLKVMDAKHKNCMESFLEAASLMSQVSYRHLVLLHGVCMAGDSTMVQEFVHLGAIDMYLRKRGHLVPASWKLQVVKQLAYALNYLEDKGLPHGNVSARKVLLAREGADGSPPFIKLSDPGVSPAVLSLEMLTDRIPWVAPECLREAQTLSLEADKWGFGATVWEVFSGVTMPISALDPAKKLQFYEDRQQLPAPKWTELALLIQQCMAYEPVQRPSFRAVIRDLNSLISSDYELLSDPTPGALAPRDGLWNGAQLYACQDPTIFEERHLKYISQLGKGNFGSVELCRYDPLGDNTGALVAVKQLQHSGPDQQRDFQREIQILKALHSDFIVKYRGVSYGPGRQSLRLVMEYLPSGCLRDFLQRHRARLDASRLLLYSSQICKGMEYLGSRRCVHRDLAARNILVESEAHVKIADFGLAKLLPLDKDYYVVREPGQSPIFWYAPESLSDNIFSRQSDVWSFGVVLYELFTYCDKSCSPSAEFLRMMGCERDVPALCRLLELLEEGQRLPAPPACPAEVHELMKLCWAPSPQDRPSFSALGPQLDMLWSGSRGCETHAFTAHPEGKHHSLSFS
Sequence of JAK3/JAK1 (P23458 whole entry): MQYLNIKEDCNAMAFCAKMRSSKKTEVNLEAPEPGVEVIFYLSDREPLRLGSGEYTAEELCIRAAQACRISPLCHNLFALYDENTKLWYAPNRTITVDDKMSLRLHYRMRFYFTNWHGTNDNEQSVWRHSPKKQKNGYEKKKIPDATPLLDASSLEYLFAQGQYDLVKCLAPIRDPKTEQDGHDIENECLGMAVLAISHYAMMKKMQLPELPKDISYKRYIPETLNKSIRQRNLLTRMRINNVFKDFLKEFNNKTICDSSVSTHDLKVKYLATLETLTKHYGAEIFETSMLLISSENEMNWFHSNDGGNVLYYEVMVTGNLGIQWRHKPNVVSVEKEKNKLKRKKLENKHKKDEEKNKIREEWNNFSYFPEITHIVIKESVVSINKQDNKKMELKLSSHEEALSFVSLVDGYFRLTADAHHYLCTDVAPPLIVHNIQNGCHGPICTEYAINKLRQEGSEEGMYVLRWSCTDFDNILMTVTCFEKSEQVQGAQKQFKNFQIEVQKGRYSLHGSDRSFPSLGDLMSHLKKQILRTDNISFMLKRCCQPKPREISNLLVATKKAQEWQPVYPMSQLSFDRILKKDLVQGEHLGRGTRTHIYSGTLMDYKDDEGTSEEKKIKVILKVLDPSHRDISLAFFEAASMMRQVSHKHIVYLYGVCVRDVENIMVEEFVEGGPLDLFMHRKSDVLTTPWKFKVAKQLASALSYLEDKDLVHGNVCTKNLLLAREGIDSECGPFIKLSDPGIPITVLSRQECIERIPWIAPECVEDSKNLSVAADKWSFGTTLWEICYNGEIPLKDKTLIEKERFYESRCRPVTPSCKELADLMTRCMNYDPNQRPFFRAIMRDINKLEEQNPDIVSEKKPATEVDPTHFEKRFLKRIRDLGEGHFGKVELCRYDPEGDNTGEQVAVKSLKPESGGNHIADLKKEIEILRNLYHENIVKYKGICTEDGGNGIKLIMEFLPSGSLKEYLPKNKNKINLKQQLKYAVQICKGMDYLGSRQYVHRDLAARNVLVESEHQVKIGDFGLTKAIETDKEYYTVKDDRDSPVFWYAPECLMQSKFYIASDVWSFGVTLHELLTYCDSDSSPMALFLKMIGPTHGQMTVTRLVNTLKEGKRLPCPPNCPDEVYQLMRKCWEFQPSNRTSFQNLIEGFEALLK

| Compound | inhibition in vivo at 40 mg/kg [3] | IC50 [4] | inhibition in vivo at 5 mg/kg [5] | IC50 (Cytochrome P450 3A4 [6]) | IC50 (Cytochrome P450 3A4 [7]) | also measured |
| --- | --- | --- | --- | --- | --- | --- |
| Cc1cnc(Nc2ccc(N3CCN(C)CC3)nc2)nc1Nc1ccc2oc(=O)[nH]c2c1 | 82% | 84 nM | 30% | > 10000 nM | 4000 nM | IC50 (JAK3/JAK1): 20 nM; fraction unbound [1]: 0.16; fraction unbound [2]: 0.19; Ratio IC50 (Homo sapiens): 4; bioavailability [8]: 4% |
| Cc1cnc(Nc2cccc(S(N)(=O)=O)c2)nc1Nc1ccc2oc(=O)[nH]c2c1 | 30% | – | – | – | – | IC50 [9]: 5000 nM |
| COc1cc(Nc2ncc(C)c(Nc3ccc4oc(=O)[nH]c4c3)n2)cc(C)c1C | 90% | 1110 nM | 68% | > 10000 nM | 2900 nM | Ki (Cytochrome P450 1A2): 6000 nM |
| Cc1cnc(Nc2cccc(S(C)(=O)=O)c2)nc1Nc1ccc2oc(=O)[nH]c2c1 | 56% | – | – | – | – | – |
| COc1cc(Nc2ncc(C)c(Nc3ccc4oc(=O)[nH]c4c3)n2)cc(OC)c1OC | 88% | 81 nM | – | > 10000 nM | 1100 nM | IC50 (JAK3/JAK1): 26 nM; Ratio IC50 (Homo sapiens): 3 |
| COc1cc(Nc2ncc(C)c(Nc3ccc4oc(=O)[nH]c4c3)n2)cc(C)c1OC | – | 42 nM | – | > 10000 nM | 2700 nM | – |
| COc1cc(Nc2ncc(C)c(Nc3ccc4oc(=O)[nH]c4c3)n2)cc(C)c1F | – | – | – | – | – | Ratio IC50 (Homo sapiens): 24; inhibition [10]: < 50% |
| COc1cc(Nc2ncc(C)c(Nc3ccc4oc(=O)[nH]c4c3)n2)cc(C)c1F.O=S(=O)(O)c1ccccc1 | – | – | – | – | – | bioavailability [8]: 37%; AUC [11]: 507 ng·h/mL; inhibition in vivo at 50 mg/kg (Rattus norvegicus [12]): 98%; inhibition in vivo at 100 mg/kg (Rattus norvegicus [13]): 98%; inhibition in vivo at 25 mg/kg (Rattus norvegicus [14]): 75% |
| COc1cc(Nc2ncc(C)c(Nc3ccc4oc(=O)[nH]c4c3)n2)cc(C(F)F)c1 | 92% | 173 nM | 66% | > 10000 nM | 3000 nM | – |
| COc1cc(Nc2ncc(C)c(Nc3ccc4oc(=O)[nH]c4c3)n2)cc(OC)c1 | – | 132 nM | – | – | – | – |
| COc1cc(C)cc(Nc2ncc(C)c(Nc3ccc4oc(=O)[nH]c4c3)n2)c1 | 91% | 354 nM | 55% | > 10000 nM | > 10000 nM | – |

— ChEMBL document CHEMBL5113550, “Optimization of Pyrimidine Compounds as Potent JAK1 Inhibitors and the Discovery of R507 as a Clinical Candidate” (ACS Med Chem Lett, 2022)
